# Assay results taken from PMC10123104 (Nucleic Acids Research, 2023).
# pKd: −log10 of the molar value. No end group written: not given here.
# Biological target: YbiB (Escherichia coli, UniProt P30177)
# Test: biochemical
# Type: binding
# Chain of YbiB (P30177 whole entry): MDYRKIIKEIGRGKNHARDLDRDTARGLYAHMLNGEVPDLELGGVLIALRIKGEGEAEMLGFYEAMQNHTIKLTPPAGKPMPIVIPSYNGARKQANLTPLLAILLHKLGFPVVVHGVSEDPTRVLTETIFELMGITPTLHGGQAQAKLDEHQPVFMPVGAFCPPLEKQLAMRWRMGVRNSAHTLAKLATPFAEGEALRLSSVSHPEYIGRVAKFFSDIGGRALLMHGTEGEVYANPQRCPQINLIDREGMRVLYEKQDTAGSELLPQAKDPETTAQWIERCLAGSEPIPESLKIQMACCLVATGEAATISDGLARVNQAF
Compound,"stoichiometry n (ITC, Figure 3C isotherm, single binding event)",pKd
CC[C@H](C)[C@H](NC(=O)[C@H](Cc1ccccc1)NC(=O)[C@H](CCC(=O)O)NC(=O)[C@@H](NC(=O)CNC(=O)[C@H](CCC(=O)O)NC(=O)[C@H](CCC(=O)O)NC(=O)[C@H](CC(=O)O)NC(=O)[C@H](CC(=O)O)NC(=O)[C@H](CCC(=O)O)NC(=O)[C@H](CC(=O)O)NC(=O)[C@H](Cc1c[nH]c2ccccc12)NC(=O)[C@H](CC(=O)O)NC(=O)[C@H](CC(=O)O)NC(=O)[C@H](CC(=O)O)NC(=O)[C@H](Cc1c[nH]c2ccccc12)NC(=O)[C@@H](N)CC(=O)O)C(C)C)C(=O)N[C@@H](Cc1ccc(O)cc1)C(=O)N[C@@H](CCCCN)C(=O)N[C@@H](CCCNC(=N)N)C(=O)O [peptide5],0.937 ± 0.008,
LEEIAEEDDEDADDDADEDD [peptide4-AA],,~5.00
